Results reported in ChEMBL document CHEMBL1833875, “Synthesis and in vitro antiprotozoal activities of 5-phenyliminobenzo[a]phenoxazine derivatives” (Bioorg Med Chem Lett, 2011).

System: Plasmodium falciparum
Test: Antimalarial activity against Plasmodium falciparum K1 at pH 7.4 by microplate assay
Format: functional, organism-based
Conditions: not given
For `CCN(CC)c1ccc2nc3c4ccccc4/c(=N\c4ccccc4)cc-3oc2c1`, the IC50 was 0.208 µM.
Compound `CCN(CC)c1ccc2nc3c4ccccc4/c(=N\c4ccc(C)cc4)cc-3oc2c1` has an IC50 of 0.253 µM.
For `CCN(CC)c1ccc2nc3c4ccccc4/c(=N\c4ccc(OC)cc4)cc-3oc2c1`, the IC50 was 0.04 µM.
`CCN(CC)c1ccc2nc3c4ccccc4/c(=N\c4cccc(OC)c4)cc-3oc2c1` gave an IC50 of 0.045 µM.
Work on `CCN(CC)c1ccc2nc3c4ccccc4/c(=N\c4ccccc4Cl)cc-3oc2c1` yielded an IC50 of 0.215 µM.
In the case of `CCN(CC)c1ccc2nc3c4ccccc4/c(=N\c4cccc(Cl)c4)cc-3oc2c1`, the IC50 is reported as 0.209 µM.
`CCN(CC)c1ccc2nc3c4ccccc4/c(=N\c4ccc([N+](=O)[O-])cc4)cc-3oc2c1` gave an IC50 of 0.135 µM.
For `CCN(CC)c1ccc2nc3c4ccccc4/c(=N\c4ccc([N+](=O)[O-])cc4Cl)cc-3oc2c1`, the IC50 was 1.93 µM.
In the case of `CCN(CC)c1ccc2nc3c4ccccc4/c(=N\c4ccc([N+](=O)[O-])cc4C#N)cc-3oc2c1`, the IC50 is reported as 0.205 µM.

System: Trypanosoma cruzi
Test: Antiprotozoal activity against Trypanosoma cruzi Tulahuen C4 at pH 7.4 by microplate assay
Format: functional, organism-based
Conditions: not given
`CCN(CC)c1ccc2nc3c4ccccc4/c(=N\c4ccccc4)cc-3oc2c1` gave an IC50 greater than 229 µM.
With `CCN(CC)c1ccc2nc3c4ccccc4/c(=N\c4ccc(C)cc4)cc-3oc2c1` the IC50 was 20.9 µM.
Work on `CCN(CC)c1ccc2nc3c4ccccc4/c(=N\c4ccc(OC)cc4)cc-3oc2c1` yielded an IC50 of 20.3 µM.
Work on `CCN(CC)c1ccc2nc3c4ccccc4/c(=N\c4cccc(OC)c4)cc-3oc2c1` yielded an IC50 of 143 µM.
Compound `CCN(CC)c1ccc2nc3c4ccccc4/c(=N\c4ccccc4Cl)cc-3oc2c1` has an IC50 of 78.8 µM.
For `CCN(CC)c1ccc2nc3c4ccccc4/c(=N\c4cccc(Cl)c4)cc-3oc2c1`, the IC50 was 76.7 µM.
In the case of `CCN(CC)c1ccc2nc3c4ccccc4/c(=N\c4ccc([N+](=O)[O-])cc4)cc-3oc2c1`, the IC50 is reported as 56.9 µM.
In the case of `CCN(CC)c1ccc2nc3c4ccccc4/c(=N\c4ccc([N+](=O)[O-])cc4Cl)cc-3oc2c1`, the IC50 is reported as 10.9 µM.
`CCN(CC)c1ccc2nc3c4ccccc4/c(=N\c4ccc([N+](=O)[O-])cc4C#N)cc-3oc2c1` gave an IC50 of 144 µM.
Work on `O=C(Cn1ccnc1[N+](=O)[O-])NCc1ccccc1` [BENZNIDAZOLE] yielded an IC50 of 0.886 µM.

System: Trypanosoma brucei rhodesiense
Test: Antiprotozoal activity against Trypanosoma brucei rhodesiense STIB900 at pH 7.4 by microplate assay
Format: functional, organism-based
Conditions: not given
`CCN(CC)c1ccc2nc3c4ccccc4/c(=N\c4ccccc4)cc-3oc2c1` gave an IC50 of 88.5 µM.
`CCN(CC)c1ccc2nc3c4ccccc4/c(=N\c4ccc(C)cc4)cc-3oc2c1` gave an IC50 of 36.2 µM.
`CCN(CC)c1ccc2nc3c4ccccc4/c(=N\c4ccc(OC)cc4)cc-3oc2c1` showed an IC50 of 14.9 µM.
In the case of `CCN(CC)c1ccc2nc3c4ccccc4/c(=N\c4cccc(OC)c4)cc-3oc2c1`, the IC50 is reported as 11.3 µM.
`CCN(CC)c1ccc2nc3c4ccccc4/c(=N\c4ccccc4Cl)cc-3oc2c1` gave an IC50 of 85.4 µM.
Work on `CCN(CC)c1ccc2nc3c4ccccc4/c(=N\c4cccc(Cl)c4)cc-3oc2c1` yielded an IC50 of 129 µM.
`CCN(CC)c1ccc2nc3c4ccccc4/c(=N\c4ccc([N+](=O)[O-])cc4)cc-3oc2c1` showed an IC50 of 198 µM.
In the case of `CCN(CC)c1ccc2nc3c4ccccc4/c(=N\c4ccc([N+](=O)[O-])cc4Cl)cc-3oc2c1`, the IC50 is reported as 184 µM.
Compound `CCN(CC)c1ccc2nc3c4ccccc4/c(=N\c4ccc([N+](=O)[O-])cc4C#N)cc-3oc2c1` has an IC50 of 147 µM.

System: Leishmania donovani
Test: Antiprotozoal activity against Leishmania donovani MHOM/ET/67/L82 at pH 7.4 by microplate assay
Format: functional, organism-based
Conditions: not given
For `CCN(CC)c1ccc2nc3c4ccccc4/c(=N\c4ccccc4)cc-3oc2c1`, the IC50 was 20.1 µM.
Compound `CCN(CC)c1ccc2nc3c4ccccc4/c(=N\c4ccc(C)cc4)cc-3oc2c1` has an IC50 of 10.7 µM.
Work on `CCN(CC)c1ccc2nc3c4ccccc4/c(=N\c4ccc(OC)cc4)cc-3oc2c1` yielded an IC50 of 5.2 µM.
`CCN(CC)c1ccc2nc3c4ccccc4/c(=N\c4cccc(OC)c4)cc-3oc2c1` showed an IC50 of 2.9 µM.
In the case of `CCN(CC)c1ccc2nc3c4ccccc4/c(=N\c4ccccc4Cl)cc-3oc2c1`, the IC50 is reported as 23.3 µM.
Compound `CCN(CC)c1ccc2nc3c4ccccc4/c(=N\c4cccc(Cl)c4)cc-3oc2c1` has an IC50 of 28.6 µM.
`CCN(CC)c1ccc2nc3c4ccccc4/c(=N\c4ccc([N+](=O)[O-])cc4)cc-3oc2c1` gave an IC50 greater than 205 µM.
For `CCN(CC)c1ccc2nc3c4ccccc4/c(=N\c4ccc([N+](=O)[O-])cc4Cl)cc-3oc2c1`, the IC50 was 70.5 µM.
With `CCN(CC)c1ccc2nc3c4ccccc4/c(=N\c4ccc([N+](=O)[O-])cc4C#N)cc-3oc2c1` the IC50 was 90.6 µM.

System: L6
Test: Cytotoxicity against rat L6 cells
Format: cell-based
Conditions: not given
For `CCN(CC)c1ccc2nc3c4ccccc4/c(=N\c4ccccc4)cc-3oc2c1`, the IC50 was 180 µM.
Work on `CCN(CC)c1ccc2nc3c4ccccc4/c(=N\c4ccc(C)cc4)cc-3oc2c1` yielded an IC50 of 134 µM.
Compound `CCN(CC)c1ccc2nc3c4ccccc4/c(=N\c4ccc(OC)cc4)cc-3oc2c1` has an IC50 of 57.2 µM.
Work on `CCN(CC)c1ccc2nc3c4ccccc4/c(=N\c4cccc(OC)c4)cc-3oc2c1` yielded an IC50 of 39.6 µM.
In the case of `CCN(CC)c1ccc2nc3c4ccccc4/c(=N\c4ccccc4Cl)cc-3oc2c1`, the IC50 is reported as 56.2 µM.
Work on `CCN(CC)c1ccc2nc3c4ccccc4/c(=N\c4cccc(Cl)c4)cc-3oc2c1` yielded an IC50 of 129 µM.
With `CCN(CC)c1ccc2nc3c4ccccc4/c(=N\c4ccc([N+](=O)[O-])cc4)cc-3oc2c1` the IC50 was 51.9 µM.
`CCN(CC)c1ccc2nc3c4ccccc4/c(=N\c4ccc([N+](=O)[O-])cc4Cl)cc-3oc2c1` showed an IC50 of 14.6 µM.
Compound `CCN(CC)c1ccc2nc3c4ccccc4/c(=N\c4ccc([N+](=O)[O-])cc4C#N)cc-3oc2c1` has an IC50 of 61.8 µM.

System: not listed separately
Test: Selectivity index, ratio of IC50 for rat L6 cells to IC50 for Plasmodium falciparum K1
Format: toxicity, cell-based
Conditions: read-out: Ratio IC50
For `CCN(CC)c1ccc2nc3c4ccccc4/c(=N\c4ccccc4)cc-3oc2c1`, the selectivity ratio was 863.
Work on `CCN(CC)c1ccc2nc3c4ccccc4/c(=N\c4ccc(C)cc4)cc-3oc2c1` yielded a selectivity ratio of 531.
For `CCN(CC)c1ccc2nc3c4ccccc4/c(=N\c4ccc(OC)cc4)cc-3oc2c1`, the selectivity ratio was 1420.
`CCN(CC)c1ccc2nc3c4ccccc4/c(=N\c4cccc(OC)c4)cc-3oc2c1` gave a selectivity ratio of 883.
`CCN(CC)c1ccc2nc3c4ccccc4/c(=N\c4ccccc4Cl)cc-3oc2c1` showed a selectivity ratio of 261.
For `CCN(CC)c1ccc2nc3c4ccccc4/c(=N\c4cccc(Cl)c4)cc-3oc2c1`, the selectivity ratio was 617.
`CCN(CC)c1ccc2nc3c4ccccc4/c(=N\c4ccc([N+](=O)[O-])cc4)cc-3oc2c1` showed a selectivity ratio of 386.
`CCN(CC)c1ccc2nc3c4ccccc4/c(=N\c4ccc([N+](=O)[O-])cc4Cl)cc-3oc2c1` showed a selectivity ratio of 8.
Work on `CCN(CC)c1ccc2nc3c4ccccc4/c(=N\c4ccc([N+](=O)[O-])cc4C#N)cc-3oc2c1` yielded a selectivity ratio of 302.

System: not listed separately
Test: Selectivity index, ratio of IC50 for rat L6 cells to IC50 for Trypanosoma cruzi Tulahuen C4
Format: toxicity, cell-based
Conditions: read-out: Ratio IC50
Work on `CCN(CC)c1ccc2nc3c4ccccc4/c(=N\c4ccccc4)cc-3oc2c1` yielded a selectivity ratio of less than 0.79.
`CCN(CC)c1ccc2nc3c4ccccc4/c(=N\c4ccc(C)cc4)cc-3oc2c1` gave a selectivity ratio of 6.42.
In the case of `CCN(CC)c1ccc2nc3c4ccccc4/c(=N\c4ccc(OC)cc4)cc-3oc2c1`, the selectivity ratio is reported as 2.82.
In the case of `CCN(CC)c1ccc2nc3c4ccccc4/c(=N\c4cccc(OC)c4)cc-3oc2c1`, the selectivity ratio is reported as 0.28.
Work on `CCN(CC)c1ccc2nc3c4ccccc4/c(=N\c4ccccc4Cl)cc-3oc2c1` yielded a selectivity ratio of 0.71.
With `CCN(CC)c1ccc2nc3c4ccccc4/c(=N\c4cccc(Cl)c4)cc-3oc2c1` the selectivity ratio was 1.68.
In the case of `CCN(CC)c1ccc2nc3c4ccccc4/c(=N\c4ccc([N+](=O)[O-])cc4)cc-3oc2c1`, the selectivity ratio is reported as 0.91.
Work on `CCN(CC)c1ccc2nc3c4ccccc4/c(=N\c4ccc([N+](=O)[O-])cc4Cl)cc-3oc2c1` yielded a selectivity ratio of 1.34.
Compound `CCN(CC)c1ccc2nc3c4ccccc4/c(=N\c4ccc([N+](=O)[O-])cc4C#N)cc-3oc2c1` has a selectivity ratio of 0.43.

System: not listed separately
Test: Selectivity index, ratio of IC50 for rat L6 cells to IC50 for Trypanosoma brucei rhodesiense STIB900
Format: toxicity, cell-based
Conditions: read-out: Ratio IC50
With `CCN(CC)c1ccc2nc3c4ccccc4/c(=N\c4ccccc4)cc-3oc2c1` the selectivity ratio was 2.03.
`CCN(CC)c1ccc2nc3c4ccccc4/c(=N\c4ccc(C)cc4)cc-3oc2c1` showed a selectivity ratio of 3.71.
In the case of `CCN(CC)c1ccc2nc3c4ccccc4/c(=N\c4ccc(OC)cc4)cc-3oc2c1`, the selectivity ratio is reported as 3.84.
For `CCN(CC)c1ccc2nc3c4ccccc4/c(=N\c4cccc(OC)c4)cc-3oc2c1`, the selectivity ratio was 3.52.
Work on `CCN(CC)c1ccc2nc3c4ccccc4/c(=N\c4ccccc4Cl)cc-3oc2c1` yielded a selectivity ratio of 0.66.
Compound `CCN(CC)c1ccc2nc3c4ccccc4/c(=N\c4cccc(Cl)c4)cc-3oc2c1` has a selectivity ratio of 1.
In the case of `CCN(CC)c1ccc2nc3c4ccccc4/c(=N\c4ccc([N+](=O)[O-])cc4)cc-3oc2c1`, the selectivity ratio is reported as 0.26.
In the case of `CCN(CC)c1ccc2nc3c4ccccc4/c(=N\c4ccc([N+](=O)[O-])cc4Cl)cc-3oc2c1`, the selectivity ratio is reported as 0.08.
In the case of `CCN(CC)c1ccc2nc3c4ccccc4/c(=N\c4ccc([N+](=O)[O-])cc4C#N)cc-3oc2c1`, the selectivity ratio is reported as 0.42.

System: not listed separately
Test: Selectivity index, ratio of IC50 for rat L6 cells to IC50 for Leishmania donovani MHOM/ET/67/L82
Format: toxicity, cell-based
Conditions: read-out: Ratio IC50
In the case of `CCN(CC)c1ccc2nc3c4ccccc4/c(=N\c4ccccc4)cc-3oc2c1`, the selectivity ratio is reported as 8.94.
For `CCN(CC)c1ccc2nc3c4ccccc4/c(=N\c4ccc(C)cc4)cc-3oc2c1`, the selectivity ratio was 12.5.
`CCN(CC)c1ccc2nc3c4ccccc4/c(=N\c4ccc(OC)cc4)cc-3oc2c1` gave a selectivity ratio of 10.9.
For `CCN(CC)c1ccc2nc3c4ccccc4/c(=N\c4cccc(OC)c4)cc-3oc2c1`, the selectivity ratio was 13.9.
With `CCN(CC)c1ccc2nc3c4ccccc4/c(=N\c4ccccc4Cl)cc-3oc2c1` the selectivity ratio was 2.41.
`CCN(CC)c1ccc2nc3c4ccccc4/c(=N\c4cccc(Cl)c4)cc-3oc2c1` gave a selectivity ratio of 4.5.
With `CCN(CC)c1ccc2nc3c4ccccc4/c(=N\c4ccc([N+](=O)[O-])cc4)cc-3oc2c1` the selectivity ratio was less than 0.25.
With `CCN(CC)c1ccc2nc3c4ccccc4/c(=N\c4ccc([N+](=O)[O-])cc4Cl)cc-3oc2c1` the selectivity ratio was 0.21.
Work on `CCN(CC)c1ccc2nc3c4ccccc4/c(=N\c4ccc([N+](=O)[O-])cc4C#N)cc-3oc2c1` yielded a selectivity ratio of 0.68.
